{
  "source": "patent US20120045459A1",
  "about": "“Methods for Treating Autophagy-Related Disorders” (Van Andel Research Institute, priority 2009, published 2012)",
  "key": {"U2OS cells [1]": {"tested_on": "U2OS cells", "assay": "LC3B immunofluorescence of autophagic vesicles", "format": "cell-based, human", "settings": "full growth medium, 25 uM chloroquine, 1 hr", "protocol": "Immunofluorescence and western blot analyses. U2OS cells were seeded at a density of 35,000 cells per well in McCoy's 5A medium supplemented with 10% FBS on number 1.5 coverglass in 24-well tissue culture plates (for immunofluorescence) or 150,000 cells per well on 6-well dishes (for western blot). After 24 h, siRNAs were transfected at a final concentration of 25 nM using 2 μl HiPerfect transfection reagents (Qiagen) per ml medium. Control siRNA was All-star negative control (Qiagen) and PTPRS siRNAs were two unique sequences (SI02759288, SI03056284, Qiagen). […] For western blots, cells were lysed (in 10 mM KPO4, 1 mM EDTA, 10 mM MgCl2, 5 mM EGTA, 50 mM bisglycerophosphate, 0.5% NP40, 0.1% Brij35, 0.1% sodium deoxycholate, 1 mM NaVO4, 5 mM NaF, 2 mM DTT, AEBSF, aprotinin, bestatin hydrochloride, E64, leupeptin, and pepstatin A and 20 μg of total protein was resolved by SDS-PAGE. Membranes were probed with primary antibodies (LC3B, Cell Signaling Technologies; α-tubulin, Sigma) for 16 h at 4° C. followed by secondary antibodies (HRP-linked anti-rabbit or anti-mouse IgG) for 1 h at room temperature. Proteins were detected by enhanced chemiluminescence. For immunofluorescence, cells were fixed with 3.7% formaldehyde, permeabilized with 0.2% Triton-X 100, and blocked with 3% bovine serum albumin (BSA) in PBS. […]"}, "U2OS cells [2]": {"tested_on": "U2OS cells", "assay": "Transmission electron microscopy of autophagic vesicles", "format": "cell-based, human", "settings": "compared with control cells in full nutrients", "protocol": "Transmission electron microscopy (TEM). U2OS cells in 10-cm dishes were transfected with control or PTPRS siRNAs for 48 h. Cells were briefly trypsinized, pelleted, rinsed, and resuspended in 2% glutaraldehyde fixative. Cell pellets were embedded in 2% agarose, postfixed in osmium tetroxide, and dehydrated with an acetone series. […] Ultrathin sections (70 nm) were generated with a Power Tome XL (Boeckeler Instruments) and placed on copper grids. Cells were examined using a JEOL 100CX Transmission Electron Microscope at 100 kV. Autophagic structures were quantified from images encompassing approximately 8.5 μm2 of cell area each."}},
  "data": [
    {"compound": "CCN(CC)CCCC(C)Nc1ccnc2cc(Cl)ccc12", "note": "(centres unmarked) [chloroquine]", "values": [
      {"measurement": "LC3-positive aggregates (AVs)", "setting": "U2OS cells [1]", "value": "LC3-positive aggregates accumulate"},
      {"measurement": "autophagic vesicles (AVs) by TEM", "setting": "U2OS cells [2]", "value": "evident"}
    ]}
  ]
}
